Experimental data reported in ChEMBL document CHEMBL4390694, “Benzofuran-isatin hybrids tethered via different length alkyl linkers and their in vitro anti-mycobacterial activities” (Bioorg Med Chem, 2019).
Values after ≈ are worked out from the molar mass of the structure shown.

System: Mycobacterium tuberculosis
Experiment: Antimycobacterial activity against multidrug-resistant Mycobacterium tuberculosis assessed as complete inhibition of bacterial growth incubated for 7 days by rapid direct susceptibility test
Type: functional
Details: 168 h

SMILES: CCOC(=O)c1c(-c2ccc(F)cc2)oc2ccc(OCCCN3C(=O)C(=O)c4cc(F)ccc43)cc12
- MIC: 1 µg/mL (≈ 1.98 µM)

SMILES: CCOC(=O)c1c(-c2ccc(OC)cc2)oc2ccc(OCCCN3C(=O)C(=O)c4ccccc43)cc12
- MIC: 1 µg/mL (≈ 2 µM)

SMILES: CCOC(=O)c1c(-c2ccc(OC)cc2)oc2ccc(OCCCCCCN3C(=O)C(=O)c4cc(F)ccc43)cc12
- MIC: 0.125 µg/mL (≈ 0.223 µM)

SMILES: CCOC(=O)c1c(-c2ccc(OC)cc2)oc2ccc(OCCCCN3C(=O)C(=O)c4ccccc43)cc12
- MIC: 1 µg/mL (≈ 1.95 µM)

SMILES: CCOC(=O)c1c(-c2ccc(OC)cc2)oc2ccc(OCCCCCCN3C(=O)C(=O)c4ccccc43)cc12
- MIC: 0.125 µg/mL (≈ 0.231 µM)

SMILES: CCOC(=O)c1c(-c2ccc(F)cc2)oc2ccc(OCCCCCCN3C(=O)C(=O)c4cc(F)ccc43)cc12
- MIC: 0.25 µg/mL (≈ 0.457 µM)

SMILES: CCOC(=O)c1c(-c2ccc(F)cc2)oc2ccc(OCCCN3C(=O)C(=O)c4ccccc43)cc12
- MIC: 1 µg/mL (≈ 2.05 µM)

SMILES: CCOC(=O)c1c(-c2ccc(F)cc2)oc2ccc(OCCCN3C(=O)C(=O)c4cc(OC)ccc43)cc12
- MIC: 2 µg/mL (≈ 3.86 µM)

SMILES: CCOC(=O)c1c(-c2ccc(F)cc2)oc2ccc(OCCCCCN3C(=O)C(=O)c4cc(OC)ccc43)cc12
- MIC: 1 µg/mL (≈ 1.83 µM)

SMILES: CCOC(=O)c1c(-c2ccccc2)oc2ccc(OCCCN3C(=O)C(=O)c4cc(OC)ccc43)cc12
- MIC: 0.25 µg/mL (≈ 0.5 µM)

SMILES: CNC(=O)c1c(-c2ccc(O)cc2)oc2ccc(O)c(CN3CCCCC3)c12
- MIC: < 0.06 µg/mL

SMILES: CCOC(=O)c1c(-c2ccc(OC)cc2)oc2ccc(OCCCCCN3C(=O)C(=O)c4cc(F)ccc43)cc12
- MIC: 0.25 µg/mL (≈ 0.458 µM)

SMILES: CO[C@H]1/C=C/O[C@@]2(C)Oc3c(C)c(O)c4c(O)c(c(/C=N/N5CCN(C)CC5)c(O)c4c3C2=O)NC(=O)/C(C)=C\C=C\[C@H](C)[C@H](O)[C@@H](C)[C@@H](O)[C@@H](C)[C@H](OC(C)=O)[C@@H]1C [RIFAMPIN]
- MIC: 64 µg/mL (≈ 77.8 µM)

SMILES: NNC(=O)c1ccncc1 [ISONIAZID]
- MIC: > 128 µg/mL

SMILES: CCOC(=O)c1c(-c2ccc(OC)cc2)oc2ccc(OCCCCN3C(=O)C(=O)c4cc(OC)ccc43)cc12
- MIC: 4 µg/mL (≈ 7.36 µM)

SMILES: CCOC(=O)c1c(-c2ccc(OC)cc2)oc2ccc(OCCCN3C(=O)C(=O)c4cc(F)ccc43)cc12
- MIC: 0.25 µg/mL (≈ 0.483 µM)
